Results as given in publication PMC10447463, “Data-mining unveils structure–property–activity correlation of viral infectivity enhancing self-assembling peptides” (Nature Communications, 2023).
Like-named read-outs stand apart in the source and are kept apart here.

Columns and labels:
[1] = Zeta-potential measurement; format: physicochemical
Outline: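 Peptides diluted from DMSO stock into PBS pH 7.4 to 1 mg/mL and aged 1 d at RT, then diluted into 1 mM aqueous KCl. Zeta potential derived from electrophoretic mobility via Smoluchowski; triplicates, averaged over two independent experiments.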

[2] = Turbidity, derived count rate of scattered light; format: physicochemical; conditions: for Count Rate / kcps: derived count rate of scattered light at 633 nm, 173°, from zeta-potential measurement, 0.1 mg/mL in 1 mM KCl after 1 d at 1 mg/mL in PBS, turbidity / microscopic aggregation, mean of triplicate
Outline: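 Samples: 1 mg/mL in PBS pH 7.4 (from DMSO), 1 d at RT, then diluted in 1 mM KCl immediately before measurement. Triplicates, two independent runs averaged.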

[3] = Turbidity, derived count rate of scattered light; format: physicochemical; conditions: for Count Rate: derived count rate of scattered light (turbidity); for Log10 Count Rate: turbidity, derived count rate of scattered light, data of Figure 2D
[4] = test system: HIV-1 infection of TZM-bl cells; experiment: HIV-1 infectivity enhancement assay, β-galactosidase luminescence; format: cell-based; conditions: for Rel-EFC / Log10 Infection Rel EFC: 1.3 µM peptide; for Rel-EFC: infection relative to EF-C (QCKIKQIINMWQ = 1); for Log10 Infection Rel EFC: log10 of infection relative to EF-C; for Log Infectivity: Log10 infection relative to EF-C, TZM-bl cells, asymmetric std dev errors; for Log10 Infection Rel EF-C: HIV-1 infection of TZM-bl cells; for Abs. Inf.: absolute infection signal, HIV-1 on TZM-bl cells, β-galactosidase luminescence; for Log10 Inf. rel. to EF-C: log10 of HIV-1 infection of TZM-bl cells relative to EF-C (EF-C = 0); for Log10 of Rel to EFC (Feb2021): Log10 of infection relative to EF-C, all peptides of FigS16
[5] = zeta-potential of peptide, source data of Figure 2C
[6] = zeta-potential of the peptide assemblies, mean, Figure 3A source data
[7] = Log10 of derived count rate of scattered light (turbidity)
[8] = turbidity, Log10 of derived count rate of scattered light, Figure 3A source data
[9] = turbidity, log10 of derived count rate of scattered light
[10] = Fig. S7 panel A (plotted against β-sheet content)
[11] = Log10 of infection rate relative to EF-C, Figure 3A source data
[12] = infection rate relative to EF-C, log10, data of Figure 2D
[13] = infection rate relative to EF-C, log10, source data of Figure 2C
[14] = zeta potential of peptide assemblies
[15] = Fig. S7 panel B (plotted against CR), rounded to two decimals

Substance | Zeta-Pot. [1] | Zeta-Potential / mV [1, 5] [mV] | Zeta-Potential / mV [1, 6] [mV] | Log10 Count Rate [2, 7] | Count Rate / kcps [2] [kcps] | Log10 Count Rate [2, 8] | Log10 Count Rate [2, 9] | Count Rate [3] | Log10 Count Rate [3] | Rel-EFC [4] | Log10 Infection Rel EFC [4] | Log Infectivity [4, 10] | Log10 Infection Rel EF-C [4, 11] | Log10 Infection Rel EF-C [4, 12] | Log10 Infection Rel EF-C [4, 13] | Abs. Inf. [4] | Log10 Inf. rel. to EF-C [4] | other results
KYKGAIIGNIK | -9.14 | -5.205 | -9.14 | 1.644 | 44 | 1.644 | 1.644 | 44.1 | 1.644 | 0 | -2,51 | -2.508 | -2.51 | -2.508 | -2.508 | 80 | -2.508 | –
KYKYQY | – | -3.008 | -4.2 | 1.499 | 32 | 1.499 | – | 31.53 | 1.499 | 0,01 | -1,99 | -1.9887 | -1.99 | -1.9887 | -1.9887 | – | – | Zeta-Pot. [1, 14]: -4.2; Log10 Count Rate ([2]; log10 of derived count rate of scattered light (turbidity)): 1.499
MDQMDQMDQMDQMDQ | -14.98 | -10.69 | -14.98 | 0.9823 | 10 | 0.9823 | 0.9823 | 9.6 | 0.9823 | 0 | -2,37 | -2.37 | -2.37 | -2.37 | -2.37 | 63.33 | -2.37 | Log Infectivity [4, 15]: -2.37
MKFKFQF | -3.133 | -0.4917 | -3.13 | 2.0933 | 124 | 2.0933 | 2.0933 | 124 | 2.0933 | 0,06 | -1,2 | -1.196 | -1.2 | -1.196 | -1.196 | 1427 | -1.196 | Log Infectivity [4, 15]: -1.2
MKFM | -16 | -9.2 | -16 | 2.1165 | 131 | 2.1165 | 2.1165 | 130.8 | 2.1165 | 0,02 | -1,76 | -1.756 | -1.76 | -1.756 | -1.756 | 383.3 | -1.756 | –
NMWQKAKAQA | -5.56 | -4.582 | -5.56 | 2.384 | 242 | 2.384 | 2.384 | 242.2 | 2.384 | 0,04 | -1,38 | -1.376 | -1.38 | -1.376 | -1.376 | 1137 | -1.376 | –
NMWQKFKFQF | 9.56 | 10.63 | 9.56 | 4.148 | 14045 | 4.148 | 4.148 | 14045.43333 | 4.148 | 0,27 | -0,57 | -0.5672 | -0.57 | -0.5672 | -0.5672 | 7323 | -0.5672 | Log10 of Rel to EFC (Feb2021) [4]: -0.57
NMWQKIKIQI | – | 7.36 | 8.26 | 4.001 | 10024 | 4.001 | 4.001 | 10024.06667 | 4.001 | 0,21 | -0,69 | -0.6877 | -0.69 | -0.6877 | -0.6877 | – | -0.6877 | Zeta-Pot. [1, 14]: 8.26; Log10 of Rel to EFC (Feb2021) [4]: -0.69
NMWQKIKQII | -0.213 | 2.325 | -0.21 | 2.992 | 982 | 2.992 | 2.992 | 982.4 | 2.992 | 0,03 | -1,6 | -1.5971 | -1.6 | -1.5971 | -1.5971 | 283.3 | -1.5971 | –
NMWQKVGTPL | -9.62 | -5.334 | -9.62 | 1.431 | 27 | 1.431 | 1.431 | 26.97 | 1.431 | 0,02 | -1,61 | -1.607 | -1.61 | -1.607 | -1.607 | 276.7 | -1.607 | –
